Active and inactive are the calls of the source.
Key:
[1] = molecular target: Eukaryotic translation initiation factor 4E (Mus musculus, UniProt P63073); assay: eIF4E–eIF4G protein interaction inhibitors, dose response, biochemical, TR-FRET (AID 855); assay type: functional;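 note: potency for disrupting eIF4E binding to eIF4GI seen as loss of FRET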
[2] = molecular target: T1, Carboxy-terminal domain RNA polymerase II polypeptide A small phosphatase 1 (Homo sapiens, UniProt Q9GZU7); assay: inhibitors of CTDSP1, concentration-response testing, biochemical assay, absorbance-based, actives from ultra-high-throughput screening (AID 540297); assay type: functional
T1 sequence (Q9GZU7 whole entry): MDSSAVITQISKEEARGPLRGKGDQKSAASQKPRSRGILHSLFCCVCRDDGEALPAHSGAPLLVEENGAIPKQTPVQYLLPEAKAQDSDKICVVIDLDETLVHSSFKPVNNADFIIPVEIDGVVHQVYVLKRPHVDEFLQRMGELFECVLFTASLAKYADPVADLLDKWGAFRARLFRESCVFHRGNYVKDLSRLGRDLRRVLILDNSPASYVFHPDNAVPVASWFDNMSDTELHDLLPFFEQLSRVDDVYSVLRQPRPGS

[3] = molecular target: Induced myeloid leukemia cell differentiation protein Mcl-1 (Homo sapiens, UniProt Q07820); assay type: functional
Caspase-6 = molecular target: T2, Caspase-6 (Homo sapiens, UniProt P55212); assay: human caspase-6 inhibitors, dose response, biochemical, VEID-R110 fluorescence, cherry-pick (AID 720632)
T2 sequence (P55212 whole entry): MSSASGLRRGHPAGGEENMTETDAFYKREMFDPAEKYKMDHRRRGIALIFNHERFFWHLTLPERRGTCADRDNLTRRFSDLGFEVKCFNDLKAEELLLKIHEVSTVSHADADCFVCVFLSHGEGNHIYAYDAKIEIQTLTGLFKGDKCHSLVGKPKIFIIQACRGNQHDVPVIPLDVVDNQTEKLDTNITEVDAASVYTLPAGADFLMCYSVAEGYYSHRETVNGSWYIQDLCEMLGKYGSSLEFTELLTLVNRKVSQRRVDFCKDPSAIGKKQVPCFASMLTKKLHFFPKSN

[4] = molecular target: Peroxisome proliferator-activated receptor gamma/Nuclear receptor coactivator 3 (Homo sapiens, UniProt P37231); assay: TR-FRET dose response biochemical High Throughput Screening assay for agonists of the steroid receptor coactivator 3 (SRC-3) recruitment by the peroxisome proliferator-activated receptor gamma (PPAR gamma): non-selective agonists. [Related pubchem assays: 1301 (Confirmation screen.), 1048 (Primary screen.)]; assay type: functional
Major prion protein = Major prion protein (Homo sapiens, UniProt P04156); assay type: functional, cell-based
[5] = molecular target: Peroxisome proliferator-activated receptor gamma/Nuclear receptor coactivator 2 (Homo sapiens, UniProt P37231); assay: TR-FRET dose response biochemical High Throughput Screening assay for agonists of the steroid receptor coactivator 2 (SRC-2) recruitment by the peroxisome proliferator-activated receptor gamma (PPAR gamma): non-selective agonists. [Related pubchem assays: 1297, 1032 ]; assay type: functional
Protein skinhead-1 = molecular target: T3, Protein skinhead-1 (Caenorhabditis elegans, UniProt P34707); assay type: functional
T3 sequence (P34707 whole entry): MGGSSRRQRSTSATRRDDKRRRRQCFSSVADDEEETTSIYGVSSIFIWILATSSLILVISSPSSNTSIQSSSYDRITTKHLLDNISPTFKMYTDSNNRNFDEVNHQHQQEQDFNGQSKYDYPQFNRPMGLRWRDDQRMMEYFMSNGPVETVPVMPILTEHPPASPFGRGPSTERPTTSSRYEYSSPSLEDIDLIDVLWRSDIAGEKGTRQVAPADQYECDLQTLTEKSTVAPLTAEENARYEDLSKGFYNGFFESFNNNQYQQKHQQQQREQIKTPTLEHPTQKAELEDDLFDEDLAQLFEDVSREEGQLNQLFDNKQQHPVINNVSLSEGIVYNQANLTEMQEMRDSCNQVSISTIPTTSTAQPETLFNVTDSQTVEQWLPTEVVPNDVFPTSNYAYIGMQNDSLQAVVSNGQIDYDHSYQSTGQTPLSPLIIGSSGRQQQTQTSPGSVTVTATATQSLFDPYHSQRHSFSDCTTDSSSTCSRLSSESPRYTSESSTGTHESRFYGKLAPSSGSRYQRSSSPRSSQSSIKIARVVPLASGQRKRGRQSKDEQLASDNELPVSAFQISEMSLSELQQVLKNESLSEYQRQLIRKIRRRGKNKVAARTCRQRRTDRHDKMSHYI

[6] = molecular target: Peroxisome proliferator-activated receptor gamma/Nuclear receptor coactivator 1 (Homo sapiens, UniProt P37231); assay: TR-FRET dose response biochemical High Throughput Screening assay for agonists of the steroid receptor coactivator 1 (SRC-1) recruitment by the peroxisome proliferator-activated receptor gamma (PPAR gamma): non-selective agonists. [Related pubchem assays (depositor defined):AID1300, AID1808, AID504735, AID631]; assay type: protein assay
[7] = inhibitors of Vif binding to APOBEC3G peptide, primary screen, biochemical, TR-FRET, GST-Vif 1-94, biotin-A3G peptide, dose response retest (AID 1117319); assay type: functional;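 note: TR-FRET signal of purified GST-Vif binding a biotinylated A3G peptide; inhibitors lower the FRET signal by blocking Vif and A3G binding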
[8] = molecular target: T4, 1-phosphatidylinositol 4,5-bisphosphate phosphodiesterase beta-3 (Homo sapiens, UniProt Q01970); assay: Fluorescence-based biochemical high throughput dose response assay to identify inhibitors of phospholipase C isozymes (PLC-B3).
T4 sequence (Q01970 whole entry): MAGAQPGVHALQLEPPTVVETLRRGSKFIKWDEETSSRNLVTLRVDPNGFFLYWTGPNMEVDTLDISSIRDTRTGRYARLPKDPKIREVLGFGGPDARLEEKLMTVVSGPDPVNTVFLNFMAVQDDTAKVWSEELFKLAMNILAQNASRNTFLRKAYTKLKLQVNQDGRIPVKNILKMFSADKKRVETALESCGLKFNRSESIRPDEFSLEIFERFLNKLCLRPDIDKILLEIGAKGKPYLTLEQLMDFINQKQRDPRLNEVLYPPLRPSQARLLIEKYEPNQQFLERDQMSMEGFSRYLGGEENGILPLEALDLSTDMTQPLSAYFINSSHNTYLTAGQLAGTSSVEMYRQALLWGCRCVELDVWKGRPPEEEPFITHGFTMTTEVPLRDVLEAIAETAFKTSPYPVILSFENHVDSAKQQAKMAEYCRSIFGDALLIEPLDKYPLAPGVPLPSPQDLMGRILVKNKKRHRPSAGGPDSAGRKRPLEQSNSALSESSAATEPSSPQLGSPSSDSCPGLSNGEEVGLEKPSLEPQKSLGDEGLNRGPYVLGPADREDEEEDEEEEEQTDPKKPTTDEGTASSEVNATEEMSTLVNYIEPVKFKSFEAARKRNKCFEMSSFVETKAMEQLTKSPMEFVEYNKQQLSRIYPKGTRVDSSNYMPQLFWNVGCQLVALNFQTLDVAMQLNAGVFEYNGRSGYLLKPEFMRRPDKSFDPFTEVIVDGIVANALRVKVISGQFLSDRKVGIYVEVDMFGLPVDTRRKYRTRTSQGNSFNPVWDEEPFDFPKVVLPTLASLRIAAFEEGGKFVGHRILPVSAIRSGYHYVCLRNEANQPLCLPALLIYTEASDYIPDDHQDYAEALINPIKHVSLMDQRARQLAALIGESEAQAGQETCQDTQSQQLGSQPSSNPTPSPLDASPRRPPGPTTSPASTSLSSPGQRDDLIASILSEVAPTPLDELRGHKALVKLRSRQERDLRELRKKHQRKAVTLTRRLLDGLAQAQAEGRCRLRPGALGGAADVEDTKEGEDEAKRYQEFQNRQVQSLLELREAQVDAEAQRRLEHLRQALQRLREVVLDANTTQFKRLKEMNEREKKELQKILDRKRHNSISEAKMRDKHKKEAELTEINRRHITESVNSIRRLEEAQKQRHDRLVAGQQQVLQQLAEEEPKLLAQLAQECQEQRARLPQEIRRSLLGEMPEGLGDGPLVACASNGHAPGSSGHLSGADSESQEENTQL

[9] = molecular target: T5, 1-phosphatidylinositol 4,5-bisphosphate phosphodiesterase gamma-1 (Homo sapiens, UniProt P19174); assay: Counterscreen for inhibitors of phospholipase C isozymes (PLC-B3): Fluorescence-based biochemical high throughput dose response assay to identify inhibitors of phospholipase C isozymes (PLC-gamma1).
T5 sequence (P19174 whole entry): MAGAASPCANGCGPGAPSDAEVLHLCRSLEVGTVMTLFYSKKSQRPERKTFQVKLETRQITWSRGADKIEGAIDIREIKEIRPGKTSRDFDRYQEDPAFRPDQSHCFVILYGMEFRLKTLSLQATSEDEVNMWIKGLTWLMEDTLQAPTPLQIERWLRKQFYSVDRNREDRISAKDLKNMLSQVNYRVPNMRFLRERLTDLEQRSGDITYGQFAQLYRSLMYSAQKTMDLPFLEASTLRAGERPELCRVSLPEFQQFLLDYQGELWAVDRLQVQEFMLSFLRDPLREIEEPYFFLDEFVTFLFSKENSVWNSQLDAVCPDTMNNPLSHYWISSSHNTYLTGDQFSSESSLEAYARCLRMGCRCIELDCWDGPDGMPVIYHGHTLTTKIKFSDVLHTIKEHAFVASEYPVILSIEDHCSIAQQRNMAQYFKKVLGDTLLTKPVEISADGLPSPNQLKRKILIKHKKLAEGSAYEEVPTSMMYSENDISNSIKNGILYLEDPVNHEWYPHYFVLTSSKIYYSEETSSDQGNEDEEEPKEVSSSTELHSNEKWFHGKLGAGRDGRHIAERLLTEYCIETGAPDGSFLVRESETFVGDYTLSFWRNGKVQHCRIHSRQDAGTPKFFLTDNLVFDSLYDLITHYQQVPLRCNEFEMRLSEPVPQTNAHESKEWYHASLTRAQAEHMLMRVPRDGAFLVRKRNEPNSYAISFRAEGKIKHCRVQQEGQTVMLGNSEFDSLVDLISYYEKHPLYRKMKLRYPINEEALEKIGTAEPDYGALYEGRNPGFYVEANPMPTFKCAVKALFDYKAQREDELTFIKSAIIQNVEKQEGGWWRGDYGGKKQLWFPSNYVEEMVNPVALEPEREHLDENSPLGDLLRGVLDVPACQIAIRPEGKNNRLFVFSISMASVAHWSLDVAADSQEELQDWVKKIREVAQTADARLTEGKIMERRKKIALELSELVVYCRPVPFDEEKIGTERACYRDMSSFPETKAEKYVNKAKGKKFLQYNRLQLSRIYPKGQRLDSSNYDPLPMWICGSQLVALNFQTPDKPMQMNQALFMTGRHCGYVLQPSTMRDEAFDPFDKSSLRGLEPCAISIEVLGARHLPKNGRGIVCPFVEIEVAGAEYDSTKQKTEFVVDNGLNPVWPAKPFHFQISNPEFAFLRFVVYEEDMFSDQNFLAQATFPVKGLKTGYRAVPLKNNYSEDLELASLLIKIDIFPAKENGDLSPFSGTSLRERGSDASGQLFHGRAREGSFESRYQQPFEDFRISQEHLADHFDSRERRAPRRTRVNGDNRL

[10] = molecular target: DNA dC->dU-editing enzyme APOBEC-3G (Homo sapiens, UniProt Q9HC16); assay type: functional;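 note: Dose-response counterscreen measuring inhibition of APOBEC3G DNA deaminase activity, run while confirming APOBEC3A inhibitors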
[11] = molecular target: DNA dC->dU-editing enzyme APOBEC-3A (Homo sapiens, UniProt P31941); assay: Dose Response confirmation of small molecule APOBEC3A DNA Deaminase Inhibitors via a fluorescence-based single-stranded DNA deaminase assay. [Related pubchem assays (depositor defined):AID493011, AID493024]; assay type: functional
[12] = test system: Streptococcus sp. 'group A'; assay: growth inhibition of control SK(-) GAS strain, dose response, counter-screen for streptokinase expression inhibitor project, luminescence, kanamycin, BacTiterGlo, confirmation (AID 1900); assay type: functional, organism-based
Streptokinase A = molecular target: T6, Streptokinase A (Streptococcus pyogenes serotype M1, UniProt P10520); assay: S. pyogenes streptokinase expression inhibitors, potency, dose response, plasminogen activation absorbance, OD405 (AID 1914); assay type: functional, Streptococcus pyogenes M1 GAS;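 note: secreted streptokinase activity via plasminogen activation per viability signal from cell pellet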
T6 sequence (P10520 whole entry): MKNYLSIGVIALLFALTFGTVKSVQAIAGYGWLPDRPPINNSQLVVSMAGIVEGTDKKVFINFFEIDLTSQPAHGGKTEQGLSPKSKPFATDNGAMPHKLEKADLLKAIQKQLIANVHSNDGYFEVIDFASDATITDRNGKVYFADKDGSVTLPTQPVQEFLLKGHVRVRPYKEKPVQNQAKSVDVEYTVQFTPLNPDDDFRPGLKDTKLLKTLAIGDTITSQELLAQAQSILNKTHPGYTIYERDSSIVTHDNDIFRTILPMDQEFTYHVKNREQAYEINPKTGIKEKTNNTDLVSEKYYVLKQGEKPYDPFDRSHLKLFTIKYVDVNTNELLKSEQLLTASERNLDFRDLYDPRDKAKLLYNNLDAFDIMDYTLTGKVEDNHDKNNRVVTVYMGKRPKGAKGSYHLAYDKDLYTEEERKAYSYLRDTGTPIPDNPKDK

Streptococcus = assay: Group A Streptococcus viability loss, dose response, counter-screen for streptokinase expression inhibitor project, luminescence, BacTiterGlo (AID 1915); assay type: functional, organism-based;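 note: potency for reduction of bacterial viability or growth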

Induced myeloid leukemia cell differentiation protein Mcl-1, sequence (Q07820 whole entry): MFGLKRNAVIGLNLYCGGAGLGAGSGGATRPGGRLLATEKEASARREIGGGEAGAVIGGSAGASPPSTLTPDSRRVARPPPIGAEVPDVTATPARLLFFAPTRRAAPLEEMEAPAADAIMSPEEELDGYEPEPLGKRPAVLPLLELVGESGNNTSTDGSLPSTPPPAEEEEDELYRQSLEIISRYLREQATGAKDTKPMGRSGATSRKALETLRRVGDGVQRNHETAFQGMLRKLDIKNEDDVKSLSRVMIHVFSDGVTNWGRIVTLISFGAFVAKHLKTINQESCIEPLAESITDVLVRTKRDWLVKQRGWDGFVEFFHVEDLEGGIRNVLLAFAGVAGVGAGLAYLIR
Eukaryotic translation initiation factor 4E, sequence (P63073 whole entry, the tested form may be a part): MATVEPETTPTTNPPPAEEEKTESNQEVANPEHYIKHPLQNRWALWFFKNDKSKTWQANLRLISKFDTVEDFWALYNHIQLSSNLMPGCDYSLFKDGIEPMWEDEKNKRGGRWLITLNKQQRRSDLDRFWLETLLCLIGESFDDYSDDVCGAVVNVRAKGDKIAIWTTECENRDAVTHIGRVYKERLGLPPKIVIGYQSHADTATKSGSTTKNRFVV
DNA dC->dU-editing enzyme APOBEC-3G, sequence (Q9HC16 whole entry): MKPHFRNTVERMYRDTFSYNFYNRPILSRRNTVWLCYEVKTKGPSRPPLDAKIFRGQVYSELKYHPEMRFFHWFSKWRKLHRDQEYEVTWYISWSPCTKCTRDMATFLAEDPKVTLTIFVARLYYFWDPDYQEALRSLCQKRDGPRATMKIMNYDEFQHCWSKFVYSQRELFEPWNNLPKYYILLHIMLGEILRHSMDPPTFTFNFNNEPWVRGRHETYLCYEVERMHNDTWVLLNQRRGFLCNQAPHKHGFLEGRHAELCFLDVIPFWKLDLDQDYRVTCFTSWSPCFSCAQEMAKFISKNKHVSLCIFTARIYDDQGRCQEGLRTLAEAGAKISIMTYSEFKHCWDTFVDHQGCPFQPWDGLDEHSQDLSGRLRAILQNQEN
Peroxisome proliferator-activated receptor gamma/Nuclear receptor coactivator 1, sequence (P37231 whole entry): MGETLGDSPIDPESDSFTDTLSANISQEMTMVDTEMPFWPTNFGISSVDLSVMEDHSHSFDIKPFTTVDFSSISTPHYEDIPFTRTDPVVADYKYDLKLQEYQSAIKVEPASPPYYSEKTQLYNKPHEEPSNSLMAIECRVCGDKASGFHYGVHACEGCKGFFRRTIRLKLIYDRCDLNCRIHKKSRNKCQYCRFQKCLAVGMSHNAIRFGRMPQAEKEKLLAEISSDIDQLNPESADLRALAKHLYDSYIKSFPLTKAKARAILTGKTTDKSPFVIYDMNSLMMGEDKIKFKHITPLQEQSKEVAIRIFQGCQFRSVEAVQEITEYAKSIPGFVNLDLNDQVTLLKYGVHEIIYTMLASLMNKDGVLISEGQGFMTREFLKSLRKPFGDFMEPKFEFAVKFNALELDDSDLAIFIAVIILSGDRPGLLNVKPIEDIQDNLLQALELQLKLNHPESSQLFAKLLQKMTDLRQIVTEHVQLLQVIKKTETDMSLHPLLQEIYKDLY
Peroxisome proliferator-activated receptor gamma/Nuclear receptor coactivator 1, sequence (Q15788 whole entry, further chain): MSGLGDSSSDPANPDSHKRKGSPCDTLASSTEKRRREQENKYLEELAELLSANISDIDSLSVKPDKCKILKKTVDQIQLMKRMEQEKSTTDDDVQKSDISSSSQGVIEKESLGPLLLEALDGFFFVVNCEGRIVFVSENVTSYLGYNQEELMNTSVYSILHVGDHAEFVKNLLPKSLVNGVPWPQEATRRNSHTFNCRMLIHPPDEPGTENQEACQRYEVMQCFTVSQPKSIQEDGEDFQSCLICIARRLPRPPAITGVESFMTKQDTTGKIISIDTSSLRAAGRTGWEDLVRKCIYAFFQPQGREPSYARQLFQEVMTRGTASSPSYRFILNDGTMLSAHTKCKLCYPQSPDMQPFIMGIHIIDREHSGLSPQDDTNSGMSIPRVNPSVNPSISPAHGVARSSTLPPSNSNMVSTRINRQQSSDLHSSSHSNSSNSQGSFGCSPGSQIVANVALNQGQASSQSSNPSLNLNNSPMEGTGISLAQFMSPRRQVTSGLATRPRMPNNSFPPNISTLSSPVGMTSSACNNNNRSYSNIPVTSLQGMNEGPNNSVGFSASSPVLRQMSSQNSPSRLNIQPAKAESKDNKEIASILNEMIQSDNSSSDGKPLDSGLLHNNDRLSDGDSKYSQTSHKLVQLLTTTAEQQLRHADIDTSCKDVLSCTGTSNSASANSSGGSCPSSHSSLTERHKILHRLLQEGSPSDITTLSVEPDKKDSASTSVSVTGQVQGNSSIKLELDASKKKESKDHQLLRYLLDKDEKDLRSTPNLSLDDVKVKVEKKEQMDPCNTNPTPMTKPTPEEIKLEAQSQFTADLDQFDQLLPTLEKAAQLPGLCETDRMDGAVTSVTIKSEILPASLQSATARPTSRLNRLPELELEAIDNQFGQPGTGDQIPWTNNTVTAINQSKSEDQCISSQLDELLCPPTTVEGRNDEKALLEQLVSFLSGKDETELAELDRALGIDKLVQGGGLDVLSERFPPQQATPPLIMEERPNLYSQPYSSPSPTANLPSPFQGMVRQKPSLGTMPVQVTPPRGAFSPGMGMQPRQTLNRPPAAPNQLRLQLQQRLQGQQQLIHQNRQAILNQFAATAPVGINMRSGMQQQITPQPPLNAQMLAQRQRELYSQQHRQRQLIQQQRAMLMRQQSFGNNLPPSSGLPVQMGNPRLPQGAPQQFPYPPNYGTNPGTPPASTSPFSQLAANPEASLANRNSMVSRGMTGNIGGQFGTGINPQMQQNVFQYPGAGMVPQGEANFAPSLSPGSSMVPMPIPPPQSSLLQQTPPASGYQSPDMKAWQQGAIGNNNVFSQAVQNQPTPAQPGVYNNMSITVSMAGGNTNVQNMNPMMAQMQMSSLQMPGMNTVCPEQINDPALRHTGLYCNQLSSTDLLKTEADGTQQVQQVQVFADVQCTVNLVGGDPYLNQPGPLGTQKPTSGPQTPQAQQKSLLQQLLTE
Peroxisome proliferator-activated receptor gamma/Nuclear receptor coactivator 3, sequence (P37231 whole entry): as the sequence (P37231 whole entry) above
Peroxisome proliferator-activated receptor gamma/Nuclear receptor coactivator 3, sequence (Q9Y6Q9 whole entry, further chain): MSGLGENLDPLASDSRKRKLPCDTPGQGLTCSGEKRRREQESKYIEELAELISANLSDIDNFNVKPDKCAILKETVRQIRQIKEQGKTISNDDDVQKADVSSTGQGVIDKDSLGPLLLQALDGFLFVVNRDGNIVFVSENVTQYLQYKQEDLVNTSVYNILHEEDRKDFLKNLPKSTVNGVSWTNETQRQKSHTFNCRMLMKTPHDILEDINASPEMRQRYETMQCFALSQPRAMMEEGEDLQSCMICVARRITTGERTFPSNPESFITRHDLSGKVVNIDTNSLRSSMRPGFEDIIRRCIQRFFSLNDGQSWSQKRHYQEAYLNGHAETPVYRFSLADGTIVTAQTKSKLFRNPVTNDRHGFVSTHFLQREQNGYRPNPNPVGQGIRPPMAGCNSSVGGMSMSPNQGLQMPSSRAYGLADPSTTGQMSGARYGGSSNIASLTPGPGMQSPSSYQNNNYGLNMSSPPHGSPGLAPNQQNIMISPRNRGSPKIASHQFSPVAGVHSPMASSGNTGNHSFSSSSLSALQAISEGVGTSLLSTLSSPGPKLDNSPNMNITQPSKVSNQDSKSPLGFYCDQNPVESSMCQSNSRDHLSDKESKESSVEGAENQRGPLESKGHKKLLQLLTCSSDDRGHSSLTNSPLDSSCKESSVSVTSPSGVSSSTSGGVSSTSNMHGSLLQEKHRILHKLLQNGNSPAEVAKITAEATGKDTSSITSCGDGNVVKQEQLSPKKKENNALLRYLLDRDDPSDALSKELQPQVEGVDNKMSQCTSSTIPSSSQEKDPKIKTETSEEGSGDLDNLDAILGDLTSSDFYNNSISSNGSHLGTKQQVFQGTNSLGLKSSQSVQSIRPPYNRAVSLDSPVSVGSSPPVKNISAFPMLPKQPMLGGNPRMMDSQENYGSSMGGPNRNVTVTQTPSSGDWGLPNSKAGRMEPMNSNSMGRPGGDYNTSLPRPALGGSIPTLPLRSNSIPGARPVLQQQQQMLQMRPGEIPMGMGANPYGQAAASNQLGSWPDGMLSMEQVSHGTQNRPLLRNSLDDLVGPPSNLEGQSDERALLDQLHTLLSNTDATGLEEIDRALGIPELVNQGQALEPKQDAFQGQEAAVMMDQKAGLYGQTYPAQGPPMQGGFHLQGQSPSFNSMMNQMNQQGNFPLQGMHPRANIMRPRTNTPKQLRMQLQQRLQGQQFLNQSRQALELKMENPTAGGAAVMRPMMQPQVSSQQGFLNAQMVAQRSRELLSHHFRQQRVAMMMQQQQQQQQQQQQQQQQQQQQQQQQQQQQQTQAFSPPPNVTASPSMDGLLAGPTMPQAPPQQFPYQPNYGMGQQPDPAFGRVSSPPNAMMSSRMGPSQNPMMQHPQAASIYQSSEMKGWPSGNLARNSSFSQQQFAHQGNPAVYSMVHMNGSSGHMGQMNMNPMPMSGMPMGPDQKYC
DNA dC->dU-editing enzyme APOBEC-3A, sequence (P31941 whole entry): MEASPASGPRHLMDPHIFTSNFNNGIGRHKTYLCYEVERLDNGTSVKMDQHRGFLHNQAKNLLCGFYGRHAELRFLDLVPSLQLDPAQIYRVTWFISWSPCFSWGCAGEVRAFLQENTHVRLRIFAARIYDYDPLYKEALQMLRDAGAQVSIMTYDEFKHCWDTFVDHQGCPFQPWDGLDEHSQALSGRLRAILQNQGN

O=C(CSc1ccsc1[N+](=O)[O-])Nc1cc(F)ccc1F
IC50 [1]: 28.4 µM (active)
IC50 [2]: 2.76 µM (active)
IC50 [3]: 6.52 µM (not active)
AC50 (Caspase-6): 5.74 µM (active)

Cc1cc2cc(CNC(=O)c3ccc(S(=O)(=O)N4CCCC4)cc3)ccc2n1C
EC50 [4]: 8.02 µM (active)
IC50 (Major prion protein): 21.5 µM (inactive)
IC50 (cells): > 138 µM (inactive)
EC50 [5]: 3.91 µM (active)
IC50 (Protein skinhead-1): > 100 µM (inactive)
EC50 [6]: 3.68 µM (active)

CC(=O)c1ccc(Nc2nc(=O)c3cccnc3s2)cc1
IC50 [7]: > 100 µM (active)

CCOc1cccc(C(=O)Nc2ccc(NC(=O)c3ccccc3)c(C)c2)c1
IC50 [8]: > 122 µM (inactive)
IC50 [9]: > 122 µM (inactive)

CC1(CC(=O)N/N=C/c2cc([N+](=O)[O-])c(O)cc2O)OCCO1
IC50 [8]: > 122 µM (inactive)
IC50 [10]: 41 µM (active)
IC50 [11]: 19.3 µM (active)
IC50 [2]: 4.41 µM (active)
AC50 (Caspase-6): 23.7 µM (active)
IC50 [9]: > 122 µM (inactive)

O=C(CC1S/C(=N\c2ccccc2)N(CCc2c[nH]c3ccccc23)C1=O)Nc1ccccc1F (centres undefined)
IC50 [8]: > 122 µM (inactive)
EC50 [12]: 13.2 µM (active)
EC50 (Streptokinase A): 14 µM (inconclusive)
EC50 (Streptococcus): 43.5 µM (active)
IC50 [9]: > 122 µM (inactive)
